Reference: patent US20210038587A1, “METHODS AND COMPOSITIONS FOR TREATING NON-ERK MAPK PATHWAY INHIBITOR-RESISTANT CANCERS” (BIOMED VALLEY DISCOVERIES, INC., priority 2013, published 2021)

Legend:
[1] = system: RKO Parental; experiment: Single agent proliferation assay (CellTiter-Glo, 96 h); format: cell-based
Method: (§1) For assessment of drug sensitivity in cell-line models of acquired resistance, drug sensitivity of dose-escalated A375 cells and isogenic RKO cells was assessed in 96-hour proliferation assays. […] For the A375 assays Alamar blue (ThermoFisher) 10% (v/v) was added and incubated for 4 h, and fluorescent product was then detected using a BMG FLUOstar.
(§2) Compounds were prepared from DMSO stocks to give the desired final concentrations. The final DMSO concentration was constant at 0.1%. […] CellTiter-Glo® reagent (Promega, Madison, Wis.) was added according to manufacturer's instructions and luminescence detected using the BMG FLUOstar plate reader (BMG Labtech, Ortenberg, Germany).

[2] = system: RKO MEK1 (Q56P/+) Clone 1; experiment: as above; format: cell-based; settings: RKO MEK1 Q56P/+ Cl.1
Method: as §1
(§3) RKO MEK1 Q56P Isogenic cells were produced by Horizon Discovery (Cambridge, UK; #HD 106-019) using a recombinant AAV-mediated gene targeting strategy. Briefly, rAAV virus was generated following transfection of the appropriate targeting vector and helper vectors in HEK293T cells, purified using an AAV purification kit (Virapur, San Diego, USA) and titrated using qPCR. Parental homozygous RKO cells (homozygous wild type for MEK1) were then infected with rAAV virus and clones that had integrated the selection cassette were identified by G418 selection and expanded. Correctly targeted clones that were heterozygous for knock-in of the MEK1 Q56P point mutation into a single allele were identified by PCR and sequencing.
as §2

[3] = system: RKO MEK1 (Q56P/+) Clone 2; experiment: as above; format: cell-based; settings: RKO MEK1 Q56P/+ Cl.2
Method: as §1, §3, §2

[4] = system: A375; experiment: Reverse Phase Protein Analysis (RPPA); format: cell-based, human; settings: % change from DMSO (matched cell line)
Method: (§4) Control wells were treated with DMSO at 0.1% (v/v) for 6 hours prior to cell lysate generation. Samples were then analyzed using reverse-phase protein microarray technology (Theranostics Health).
(§5) Cell lines with common alterations in BRAF and RAS were assayed: BRAF^V600E mutant lines A375, Colo205, and HT29; KRAS^G12C-mutant cell line MIAPACa-2; KRAS^G13D-mutant cell line HCT116; and AN3Ca with atypical HRAS^F82L mutation. Changes in protein levels are shown as a percentage change from dimethyl sulfoxide (DMSO)-treated parental control (FIG. 32A and Table 23).

[5] = system: HCT116; experiment: Reverse Phase Protein Analysis (RPPA); format: cell-based, human; settings: % change from DMSO (matched cell line)
Method: as §4, §5

## O=C(Nc1ccc2[nH]nc(-c3ccncc3)c2c1)[C@@H]1CCN(CC(=O)N2CCN(c3ccc(-c4ncccn4)cc3)CC2)C1 [SCH772984]
[1]
  IC50: 40 nM
[2]
  IC50: 140 nM
[3]
  IC50: 120 nM
[4]
  Avg (4ebp1 T70): −31.75%
  Avg (Akt S473): 58.13%
  Avg (Akt): −23.26%
  Avg (Bad S136): 5.32%
  Avg (Bad S155): −13.86%
  Avg (Bak): −2.37%
  Avg (Bax): −17.32%
  Avg (Bcl 2): −18.53%
  Avg (Bcl2 S70): −12.91%
  Avg (Bcl 2 T56): −19.55%
  Avg (Bim): 17.52%
  Avg (CREB S133): −1.55%
  Avg (Caspase 3 CL D175): −9.87%
  Avg (Caspase 7 Cl D198): −6%
  Avg (Chk1): 2.83%
  Avg (Chk1 S345): −10.59%
  Avg (Cyclin D1): −84.05%
  Avg (ERK 1 2): −21.65%
  Avg (ERK 1 2 T202 Y204): −90.63%
  Avg (MAK1 S360): 0.97%
  Avg (Mcl1): 2.11%
  Avg (Raptor S792): −6.89%
  Avg (Raptor): −11.66%
  Avg (Rictor): −22.13%
  Avg (Stat1): −6.01%
  Avg (Stat3): −1.42%
  Avg (bad S112): −71.44%
  Avg (c Fos): −12.51%
  Avg (c Myc): 1.86%
  Avg (mTOR S2448): −26.17%
  Avg (mTOR S2481): −15.82%
  Avg (mTOR): −5.18%
  Avg (p70 S6 Kinase): −17.66%
  Avg (p90 RSK S380): −72.44%
  Avg(S6 Ribo Prot S235 236): −94.71%
  Avg(S6 Ribo Prot S240 244): −91.78%
  Avg(Tuberin TSC2 Y1571): −13.7%
  Avg(p70 S6 Kinase S371 S394): −28.72%
  Avg(p70 S6 Kinase T389 T412): −42.73%
[5]
  Avg (4ebp1 T70): 5.6%
  Avg (Akt S473): −8.76%
  Avg (Akt): −9.86%
  Avg (Bad S136): −10.55%
  Avg (Bad S155): −22.96%
  Avg (Bak): −4.66%
  Avg (Bax): −13.86%
  Avg (Bcl 2): −10.58%
  Avg (Bcl2 S70): −18.34%
  Avg (Bcl 2 T56): −15.89%
  Avg (Bim): 1.95%
  Avg (CREB S133): −24.18%
  Avg (Caspase 3 CL D175): −4.63%
  Avg (Caspase 7 Cl D198): −16.35%
  Avg (Chk1): −5.58%
  Avg (Chk1 S345): −18.51%
  Avg (Cyclin D1): −73.21%
  Avg (ERK 1 2): −10.22%
  Avg (ERK 1 2 T202 Y204): −75.21%
  Avg (MAK1 S360): −15.32%
  Avg (Mcl1): −6.55%
  Avg (Raptor S792): −18.18%
  Avg (Raptor): −9.66%
  Avg (Rictor): −18.5%
  Avg (Stat1): −10.74%
  Avg (Stat3): −7.67%
  Avg (bad S112): −31.29%
  Avg (c Fos): −15.27%
  Avg (c Myc): −12.86%
  Avg (mTOR S2448): −16.05%
  Avg (mTOR S2481): −22.53%
  Avg (mTOR): −12.56%
  Avg (p70 S6 Kinase): −14.12%
  Avg (p90 RSK S380): −33.7%
  Avg(S6 Ribo Prot S235 236): −93.86%
  Avg(S6 Ribo Prot S240 244): −91.07%
  Avg(Tuberin TSC2 Y1571): −16.17%
  Avg(p70 S6 Kinase S371 S394): −12.3%
  Avg(p70 S6 Kinase T389 T412): −24.63%

## Cc1cnc(Nc2ccc(F)cc2Cl)nc1-c1c[nH]c(C(=O)N[C@H](CO)c2cccc(Cl)c2)c1 [Vx-11e]
[4]
  Avg (4ebp1 T70): 23.33%
  Avg (Akt S473): 93.85%
  Avg (Akt): −30.34%
  Avg (Bad S136): 5.06%
  Avg (Bad S155): −6.3%
  Avg (Bak): 0.65%
  Avg (Bax): −5.05%
  Avg (Bcl 2): −9.93%
  Avg (Bcl2 S70): −4.02%
  Avg (Bcl 2 T56): −7.53%
  Avg (Bim): 12.32%
  Avg (CREB S133): −15.8%
  Avg (Caspase 3 CL D175): −9.27%
  Avg (Caspase 7 Cl D198): −7.62%
  Avg (Chk1): −0.86%
  Avg (Chk1 S345): 0.56%
  Avg (Cyclin D1): −85.46%
  Avg (ERK 1 2): −5.39%
  Avg (ERK 1 2 T202 Y204): 128.93%
  Avg (MAK1 S360): −7.63%
  Avg (Mcl1): 1.6%
  Avg (Raptor S792): −0.86%
  Avg (Raptor): −12.7%
  Avg (Rictor): −8.16%
  Avg (Stat1): 0.23%
  Avg (Stat3): 1.71%
  Avg (bad S112): −69.29%
  Avg (c Fos): −13.65%
  Avg (c Myc): −0.97%
  Avg (mTOR S2448): −21.66%
  Avg (mTOR S2481): −2.9%
  Avg (mTOR): −3.31%
  Avg (p70 S6 Kinase): −6.42%
  Avg (p90 RSK S380): −65.25%
  Avg(Tuberin TSC2 Y1571): −3.55%
  Avg(p70 S6 Kinase S371 S394): −17.32%
  Avg(p70 S6 Kinase T389 T412): −25.54%
[5]
  Avg (4ebp1 T70): 10.35%
  Avg (Akt S473): −16.94%
  Avg (Akt): −18.15%
  Avg (Bad S136): −5.39%
  Avg (Bad S155): −15.59%
  Avg (Bak): −3.07%
  Avg (Bax): −20.46%
  Avg (Bcl 2): −17.3%
  Avg (Bcl2 S70): −17.79%
  Avg (Bcl 2 T56): −25%
  Avg (Bim): 4.82%
  Avg (CREB S133): −9.17%
  Avg (Caspase 3 CL D175): −5.19%
  Avg (Caspase 7 Cl D198): −11.41%
  Avg (Chk1): −8.63%
  Avg (Chk1 S345): −16.49%
  Avg (Cyclin D1): −72.72%
  Avg (ERK 1 2): −24.01%
  Avg (ERK 1 2 T202 Y204): 873.33%
  Avg (MAK1 S360): −13.73%
  Avg (Mcl1): −7.79%
  Avg (Raptor S792): −11.21%
  Avg (Raptor): −4.32%
  Avg (Rictor): 1.78%
  Avg (Stat1): −14.06%
  Avg (Stat3): −7.76%
  Avg (bad S112): −23.88%
  Avg (c Fos): −13.89%
  Avg (c Myc): −18.56%
  Avg (mTOR S2448): −10.12%
  Avg (mTOR S2481): −17.82%
  Avg (mTOR): −0.59%
  Avg (p70 S6 Kinase): −4.45%
  Avg (p90 RSK S380): −33.05%
  Avg(S6 Ribo Prot S235 236): −90.03%
  Avg(S6 Ribo Prot S240 244): −86.06%
  Avg(Tuberin TSC2 Y1571): −16.51%
  Avg(p70 S6 Kinase S371 S394): −9.89%
  Avg(p70 S6 Kinase T389 T412): −20.99%
